{"source": "paper PMC10323144", "about": "“Garbage in, garbage out: how reliable training data improved a virtual screening approach against SARS-CoV-2 MPro” (Frontiers in Pharmacology, 2023)", "origin": "cited, not measured here", "tested_on": "MPro", "conditions": "compiled from peer-reviewed sources (287 compounds) ref the 18 original articles; cited from earlier work"}
{"smiles": "O=C(CCl)N1CCN(Cc2cc(Cl)cc(Cl)c2)CC1", "note": "[PAU-UNI-8cdd41c7-1]", "values": [{"measurement": "Class (MPro activity class)", "result": "1 (Compounds with IC50 < 10 µM or with a percentage of enzyme inhibition >50% at 10 µM were labelled as ACTIVE)"}]}
{"smiles": "O=C(O)C(S)=Cc1c[nH]c2ccc(F)cc12", "note": "[PD151746]", "values": [{"measurement": "Class (MPro activity class)", "result": "0 (compounds with IC50 > 20 μM, percentage inhibition <80% at 20 µM or 50 μM, or percentage enzyme inhibition <50% at 10 µM were labelled as INACTIVE)"}]}
{"smiles": "COc1cccc2[nH]c(C(=O)NC(CC(C)C)C(=O)NC(CC3CCNC3=O)C(=O)CO)cc12", "note": "(stereo not drawn) [PF-00835231]", "values": [{"measurement": "Class (MPro activity class)", "result": "1 (Compounds with IC50 < 10 µM or with a percentage of enzyme inhibition >50% at 10 µM were labelled as ACTIVE)"}]}
{"smiles": "CCCc1ccc(OCC(=O)N(Cc2nc(-c3cccnc3)no2)C(C)C)cc1", "note": "[PI-1840]", "values": [{"measurement": "Class (MPro activity class)", "result": "0 (compounds with IC50 > 20 μM, percentage inhibition <80% at 20 µM or 50 μM, or percentage enzyme inhibition <50% at 10 µM were labelled as INACTIVE)"}]}
{"smiles": "CCC(C)SSc1ncc[nH]1", "note": "(stereo not drawn) [PX-12]", "values": [{"measurement": "Class (MPro activity class)", "result": "0 (compounds with IC50 > 20 μM, percentage inhibition <80% at 20 µM or 50 μM, or percentage enzyme inhibition <50% at 10 µM were labelled as INACTIVE)"}]}
{"smiles": "Cc1cnc(C(=O)N[C@H]2CCCCC/C=C\\[C@@H]3C[C@@]3(C(=O)NS(=O)(=O)C3CC3)NC(=O)[C@@H]3C[C@@H](Oc4nc5ccccc5c5ccccc45)CN3C2=O)cn1", "note": "[Paritaprevir]", "values": [{"measurement": "Class (MPro activity class)", "result": "0 (compounds with IC50 > 20 μM, percentage inhibition <80% at 20 µM or 50 μM, or percentage enzyme inhibition <50% at 10 µM were labelled as INACTIVE)"}]}
{"smiles": "CCC(CC)C(NC(C)=O)C1C(N=C(N)N)CC(C(=O)O)C1O", "note": "(stereo not drawn) [Peramivir]", "values": [{"measurement": "Class (MPro activity class)", "result": "0 (compounds with IC50 > 20 μM, percentage inhibition <80% at 20 µM or 50 μM, or percentage enzyme inhibition <50% at 10 µM were labelled as INACTIVE)"}]}
{"smiles": "COc1cc([C@H]2OC[C@H]3[C@@H]2CO[C@H]3c2ccc(OC)c(OC)c2)ccc1O", "note": "[Phillygenin]", "values": [{"measurement": "Class (MPro activity class)", "result": "0 (compounds with IC50 > 20 μM, percentage inhibition <80% at 20 µM or 50 μM, or percentage enzyme inhibition <50% at 10 µM were labelled as INACTIVE)"}]}
{"smiles": "COC(=O)N[C@H](C(=O)N1CCC[C@H]1c1nc2cc([C@H]3CC[C@H](c4cc5nc([C@@H]6CCCN6C(=O)[C@@H](NC(=O)OC)[C@@H](C)OC)[nH]c5cc4F)N3c3cc(F)c(N4CCC(c5ccc(F)cc5)CC4)c(F)c3)c(F)cc2[nH]1)[C@@H](C)OC", "note": "[Pibrentasvir]", "values": [{"measurement": "Class (MPro activity class)", "result": "0 (compounds with IC50 > 20 μM, percentage inhibition <80% at 20 µM or 50 μM, or percentage enzyme inhibition <50% at 10 µM were labelled as INACTIVE)"}]}
{"smiles": "O=C(O)[C@H]1C2CCC(CC2)[C@@H]1Nc1nc(-c2c[nH]c3ncc(F)cc23)ncc1F", "note": "[Pimodivir]", "values": [{"measurement": "Class (MPro activity class)", "result": "0 (compounds with IC50 > 20 μM, percentage inhibition <80% at 20 µM or 50 μM, or percentage enzyme inhibition <50% at 10 µM were labelled as INACTIVE)"}]}
{"smiles": "Cc1cc(CCCOc2c(C)cc(-c3noc(C(F)(F)F)n3)cc2C)on1", "note": "[Pleconaril]", "values": [{"measurement": "Class (MPro activity class)", "result": "0 (compounds with IC50 > 20 μM, percentage inhibition <80% at 20 µM or 50 μM, or percentage enzyme inhibition <50% at 10 µM were labelled as INACTIVE)"}]}
{"smiles": "CC[C@@H]([C@H](C)O)n1ncn(-c2ccc(N3CCN(c4ccc(OC[C@@H]5CO[C@@](Cn6cncn6)(c6ccc(F)cc6F)C5)cc4)CC3)cc2)c1=O", "note": "[Posaconazole]", "values": [{"measurement": "Class (MPro activity class)", "result": "0 (compounds with IC50 > 20 μM, percentage inhibition <80% at 20 µM or 50 μM, or percentage enzyme inhibition <50% at 10 µM were labelled as INACTIVE)"}]}
{"smiles": "O=C1c2ccccc2NC(c2cc(Br)ccc2O)N1N=Cc1cc(Br)ccc1O", "note": "(stereo not drawn) [QZ1]", "values": [{"measurement": "Class (MPro activity class)", "result": "0 (compounds with IC50 > 20 μM, percentage inhibition <80% at 20 µM or 50 μM, or percentage enzyme inhibition <50% at 10 µM were labelled as INACTIVE)"}]}
{"smiles": "O=C1c2ccccc2NC(c2cc(Cl)ccc2O)N1N=Cc1cc(Cl)ccc1O", "note": "(stereo not drawn) [QZ2]", "values": [{"measurement": "Class (MPro activity class)", "result": "1 (Compounds with IC50 < 10 µM or with a percentage of enzyme inhibition >50% at 10 µM were labelled as ACTIVE)"}]}
{"smiles": "COc1cc(Br)cc(C=NN2C(=O)c3ccccc3NC2c2cc(Br)cc(OC)c2O)c1O", "note": "(stereo not drawn) [QZ3]", "values": [{"measurement": "Class (MPro activity class)", "result": "0 (compounds with IC50 > 20 μM, percentage inhibition <80% at 20 µM or 50 μM, or percentage enzyme inhibition <50% at 10 µM were labelled as INACTIVE)"}]}
